{"source": "ChEMBL document CHEMBL5131466", "about": "“Discovery and development of labdane-oxindole hybrids as small-molecule inhibitors against chikungunya virus infection” (Eur J Med Chem, 2022)", "key": {"[1]": {"assay": "Selectivity index, ratio of CC50 for cytotoxicity against human HeLa CCL2 cells to EC50 for antiviral activity against CHIKV 122508 infected in human HeLa CCL2 cells", "assay_type": "toxicity, cell-based", "conditions": "read-out: Ratio CC50/EC50"}, "[2]": {"assay": "Cytotoxicity against human HeLa CCL2 cells assessed as reduction in cell viability measured after 24 hrs by Alamar blue assay", "assay_type": "functional"}, "[3]": {"system": "Chikungunya virus", "assay": "Antiviral activity against CHIKV 122508 infected in human HeLa CCL2 cells assessed as inhibition of viral replication at MOI of 1 at 20 uM incubated for 24 hpi by viral plaque assay", "assay_type": "functional", "conditions": "time 24 hrs"}, "[4]": {"system": "Chikungunya virus", "assay": "Antiviral activity against CHIKV 122508 infected in […] BHK-21 cells assessed as reduction in viral titer at MOI of 1 measured after 24 hpi by viral plaque assay", "assay_type": "functional, organism-based", "conditions": "Chikungunya virus, 122508, BHK-21"}, "[5]": {"system": "Chikungunya virus", "assay": "Antiviral activity against CHIKV 122508 infected in human HeLa CCL2 cells assessed as inhibition of viral replication at MOI of 1 incubated for 24 hpi by immunofluorescence assay", "assay_type": "functional, organism-based", "conditions": "Chikungunya virus, 122508, HeLa CCL2"}, "[6]": {"system": "BHK-21", "assay": "Cytotoxicity against hamster BHK-21 cells assessed as reduction in cell viability", "assay_type": "functional", "conditions": "Mesocricetus auratus"}, "[7]": {"system": "Chikungunya virus", "assay": "Antiviral activity against CHIKV 122508 infected in human HeLa CCL2 cells assessed as inhibition of viral replication at MOI of 1 at 80 uM incubated for 24 hpi by viral plaque assay", "assay_type": "functional", "set-up": "unit not given here", "conditions": "time 24 hrs"}, "[8]": {"system": "Chikungunya virus", "assay": "Antiviral activity against CHIKV 6708 infected in hamster BHK-21 cells assessed as reduction in viral titer at 80 uM post treatment", "assay_type": "functional, organism-based"}, "[9]": {"system": "Chikungunya virus", "assay": "Antiviral activity against CHIKV 122508 infected in human HeLa CCL2 cells assessed as inhibition of viral replication at MOI of 1 at 80 uM pretreated for 2 hrs followed by viral infection measured after 1.5 hrs by viral plaque assay (reference value: 6.2)", "assay_type": "functional", "conditions": "time 3.5 hrs"}, "[10]": {"system": "Chikungunya virus", "assay": "Antiviral activity against CHIKV 122508 mutant infected in hamster BHK-21cells assessed as log reduction in viral titer at 80 uM measured after 14 passage", "assay_type": "functional, organism-based"}, "[11]": {"system": "Chikungunya virus", "assay": "Antiviral activity against CHIKV 6708 infected in hamster BHK-21 cells assessed as reduction in virus titer in cells", "assay_type": "functional, organism-based", "conditions": "Chikungunya virus, 6708, BHK-21"}, "[12]": {"system": "Chikungunya virus", "assay": "Antiviral activity against CHIKV 122508 infected in human HeLa CCL2 cells assessed as inhibition of viral replication at MOI of 1 at 40 uM pretreated with compound for 2 hr prior to viral infection by viral plaque assay (reference value: 6.2 %)", "assay_type": "functional"}, "[13]": {"assay": "Selectivity index, ratio of CC50 for Cytotoxicity against hamster BHK-21 cells to EC50 for Antiviral activity against CHIKV 6708 infected in hamster BHK-21 cells", "assay_type": "toxicity, cell-based", "conditions": "read-out: Ratio CC50/EC50"}, "[14]": {"system": "Chikungunya virus", "assay": "Antiviral activity against CHIKV 122508 infected in human HeLa CCL2 cells assessed as inhibition of viral replication at MOI of 1 at 5 uM incubated for 24 hpi by viral plaque assay", "assay_type": "functional", "conditions": "time 24 hrs"}, "[15]": {"system": "Chikungunya virus", "assay": "Antiviral activity against CHIKV 122508 infected in human HeLa CCL2 cells assessed as inhibition of viral replication at MOI of 1 at 1 uM incubated for 24 hpi by viral plaque assay", "assay_type": "functional", "conditions": "time 24 hrs"}}, "note": "Calls of active or inactive are those of the source. The rule behind the calls is not given here."}
{"smiles": "C=C1CC[C@H]2C(C)(C)CCC[C@]2(C)[C@H]1C/C=C1\\C(=O)Nc2ncccc21", "values": [{"measurement": "selectivity ratio", "setting": "[1]", "value": 870}, {"measurement": "CC50", "setting": "[2]", "value": 34.8, "unit": "µM"}, {"measurement": "Activity", "setting": "[3]", "value": 1.7}, {"measurement": "EC50", "setting": "[4]", "value": 0.04, "unit": "µM"}]}
{"smiles": "C=C1CC[C@@H]2[C@](C)(CO)[C@H](O)CC[C@@]2(C)[C@@H]1C/C=C1/C(=O)Nc2ccccc21", "values": [{"measurement": "selectivity ratio", "setting": "[1]", "value": 14}, {"measurement": "CC50", "setting": "[2]", "value": 76.9, "unit": "µM"}, {"measurement": "EC50", "setting": "[5]", "value": 5.5, "unit": "µM"}, {"measurement": "EC50", "setting": "[4]", "value": 5.52, "unit": "µM"}]}
{"smiles": "C=C1CC[C@@H]2[C@](C)(CO)[C@H](O)CC[C@@]2(C)[C@@H]1C/C=C1/C(=O)OC[C@H]1O", "note": "[ANDROGRAPHOLIDE]", "values": [{"measurement": "EC50", "setting": "[5]", "value": 77, "unit": "µM"}]}
{"smiles": "C=C1CC[C@H]2C(C)(C)CCC[C@]2(C)[C@H]1C/C=C1/C(=O)Nc2c(Cl)cccc21", "values": [{"measurement": "selectivity ratio", "setting": "[1]", "value": 83}, {"measurement": "CC50", "setting": "[2]", "value": 130, "unit": "µM"}, {"measurement": "CC50", "setting": "[6]", "value": "> 100", "unit": "µM"}, {"measurement": "Activity", "setting": "[7]", "value": 3.9}, {"measurement": "Activity", "setting": "[8]", "value": "Active"}, {"measurement": "Activity", "setting": "[9]", "value": 4.6}, {"measurement": "Activity", "setting": "[10]", "value": "Active"}, {"measurement": "EC50", "setting": "[11]", "value": 0.14, "unit": "µM"}, {"measurement": "EC50", "setting": "[4]", "value": 1.55, "unit": "µM"}, {"measurement": "Activity", "setting": "[12]", "value": 5.2}, {"measurement": "selectivity ratio", "setting": "[13]", "value": 714}]}
{"smiles": "C=C1CC[C@H]2C(C)(C)CCC[C@]2(C)[C@H]1C/C=C1\\C(=O)Nc2ccc(C)cc21", "values": [{"measurement": "selectivity ratio", "setting": "[1]", "value": 461}, {"measurement": "CC50", "setting": "[2]", "value": 13.8, "unit": "µM"}, {"measurement": "Activity", "setting": "[14]", "value": 0.9}, {"measurement": "EC50", "setting": "[4]", "value": 0.03, "unit": "µM"}]}
{"smiles": "C=C1CC[C@H]2C(C)(C)CCC[C@]2(C)[C@H]1C/C=C1/C(=O)Nc2c(F)cccc21", "values": [{"measurement": "selectivity ratio", "setting": "[1]", "value": 4070}, {"measurement": "CC50", "setting": "[2]", "value": 81.4, "unit": "µM"}, {"measurement": "Activity", "setting": "[3]", "value": 2.3}, {"measurement": "EC50", "setting": "[4]", "value": 0.02, "unit": "µM"}]}
{"smiles": "C=C1CC[C@H]2C(C)(C)CCC[C@]2(C)[C@H]1C/C=C1/C(=O)Nc2ccc(F)cc21", "values": [{"measurement": "selectivity ratio", "setting": "[1]", "value": 94}, {"measurement": "CC50", "setting": "[2]", "value": 5.6, "unit": "µM"}, {"measurement": "Activity", "setting": "[14]", "value": 1.5}, {"measurement": "EC50", "setting": "[4]", "value": 0.06, "unit": "µM"}]}
{"smiles": "C=C1CC[C@H]2C(C)(C)CCC[C@]2(C)[C@H]1C/C=C1/C(=O)Nc2cc(C)ccc21", "values": [{"measurement": "selectivity ratio", "setting": "[1]", "value": 12700}, {"measurement": "CC50", "setting": "[2]", "value": 25.4, "unit": "µM"}, {"measurement": "Activity", "setting": "[14]", "value": 1.2}, {"measurement": "EC50", "setting": "[4]", "value": 0.002, "unit": "µM"}]}
{"smiles": "C=C1[C@H](O)C[C@H]2C(C)(C)CCC[C@]2(C)[C@H]1C/C=C1/C(=O)Nc2c(Cl)cccc21", "values": [{"measurement": "selectivity ratio", "setting": "[1]", "value": 6100}, {"measurement": "CC50", "setting": "[2]", "value": 6.1, "unit": "µM"}, {"measurement": "Activity", "setting": "[15]", "value": 1.1}, {"measurement": "EC50", "setting": "[4]", "value": 0.001, "unit": "µM"}]}
